The values that follow come from US10421769B2, “Anticancer property studies of chiral palladium N-heterocyclic carbene complexes and process for preparation thereof” (Indian Institute of Technology Bombay, priority 2017, dated 2019).

Read-outs that look alike come from different tables or passages of the source.

The subject of test [1] is intracellular ROS in MCF-7 cells. Nature of the test: Reactive oxygen species (ROS) assay using H2DCFDA, flow cytometry. It is filed as cell-based, human. As to conditions: MCF-7, 30 μM, 24 h, positive control. How it is done:
Experiment: Reactive oxygen species (ROS) production in cells when treated with (1R,2R,5S)-1c, was estimated by ROS assay using 2′,7′-dichlorodihydrofluorescein diacetate (H2DCFDA). MCF-7 cells (5 mL) were seeded in 60 mm cell culture dishes at a density of 1.5×10^5 cells/mL. After cell attachment, they were incubated with 4 and 8 μM (1R,2R,5S)-1c for 24 h. Cells treated with 30 μM hydrogen peroxide was used as a positive control. Following 24 h of incubation, the cells were processed and analyzed using flow cytometry. The percentage of DCFH-DA positive MCF-7 cells in the absence and presence 4 and 8 μM (1R,2R,5S)-1c was determined by flow cytometry. 30 μM H2O2 was used as a positive control. Data are average of three independent set of experiments and ±indicates S.D.

Test [2] deals with MCF-7 cells. The experiment in a line: Sulforhodamine B assay, proliferation of MCF-7 cells. It is filed as cell-based, human. Particulars: MCF-7 breast cancer cells, one cell cycle (48 h), SRB. How it is done:
(§1) The present invention further provides a Sulforhodamine B assay method for investigating the anti-cancer efficacies of the compounds of the present Pd—NHC series on MCF-7, HeLa, A549, B16-F10 and EMT6/AR1 cancer cell lines and also for a comparative study on normal skin cell line L929 and normal epithelial breast cells MCF10A. The said Sulforhodamine B assay is conducted as per reported method (Skehan et al., J. Natl. Cancer Inst. 1990, 82, 1107).
(§2) Experiment: The anti-proliferative activity of the present palladium N-heterocyclic carbene complexes on two different cancer cell lines MCF-7 and HeLa is tested using Sulforhodamine B assay to reveal their anti-tumor properties. The evaluation of growth inhibition of these complexes is done from their IC50 values for the inhibition of cell growth. The IC50 values are compared with Cisplatin to determine any increase in efficacy.
Method: The effects of present series of palladium N-heterocyclic carbene complexes, such as compounds (1S,2S,5R)-(1-3)b and (1R,2R,5S)-(1-3)b; (1S,2S,5R)-(1, 3)c and (1R,2R,5S)-(1, 3)c on the proliferation of MCF-7 cells after one cell cycle are determined by Sulforhodamine B assay. In particular, 1×10^5 cells/mL are seeded in each well in 96-well plates for 24 h and then incubated without or with different concentrations of these complexes at 37° C. for one cell cycle (48 h). After incubation of cells with the complexes for one cell cycle, cell growth is stopped by the addition of 50% trichloroacetic acid and stained with 0.4% sulforhodamine B dissolved in 1% acetic acid. Unbound dye is removed by washing with 1% acetic acid, and the protein content is determined by measuring absorbance at 520 nm in a Bio-Rad model 680 microplate reader after extracting with 10 mM tris base. IC50 value is calculated as the concentration of the complex that inhibited the proliferation of cells by 50% relative to the untreated control cells. The anticancer activities of the present Pd—NHC compounds are graphically represented in accompanying FIG. 1.
(§3) The data obtained is graphically represented in accompanying FIG. 2.
A general note: The SRB assay estimates cell density from bound dye.

Another test deals with HCT 116 cell lines. Particulars: HCT 116, MTT, 72 hours, Haque et al. Metallomics 2013; read-out: HCT-116 (IC50 value), prior art (b); cited from earlier work.
For test [3], the system named is MCF-7 cells. Particulars: MCF-7, one cell cycle, SRB, Ghosh et al. JACS 2007; read-out: MCF-7 (IC50 value), prior art (a); cited from earlier work.
Test [4] concerns HeLa cells. Particulars: one cell cycle, SRB, Ghosh et al. JACS 2007, read-out: HeLa (IC50 value), prior art (a); cited from earlier work.
In test [5] the test system is HeLa cells. Nature of the test: Sulforhodamine B assay, proliferation of HeLa cells. It is filed as cell-based, human. As to conditions: HeLa cervical cancer cells, 24 h, SRB. The method, then: as §1, §2
The seeded cells in 96-well plates are incubated with the complex for 24 h and the assay is performed.
as §3

The next test has as its system HCT 116 cells. Particulars: HCT 116, one cell cycle, SRB, Ghosh et al. JACS 2007; read-out: HCT-116 (IC50 value), prior art (a); cited from earlier work.
The subject of test [6] is MCF-7 cells. Nature of the test: Live dead assay by flow cytometry using propidium iodide. Type of test: cell-based, human. Particulars: MCF-7, 4 μM, 48 h. How it is done:
MCF-7 cells (5 mL) were seeded in 60 mm cell culture dishes at a density of 1.5×10^5 cells/mL. Cells were incubated with 4 and 8 μM (1R,2R,5S)-1c for 48 h for live dead assay. After the required incubation, cells were processed and analyzed by flow cytometry. Percentage of live and dead MCF-7 cells in the absence and presence of 4 and 8 μM (1R,2R,5S)-1c and 4 μM cisplatin was determined by flow cytometry using propidium iodide (PI).
(In general: A flow cytometer gives signals particle by particle.)

Take `OO` [Compound H2O2, hydrogen peroxide, reference compound]: the “% of DCFH-DA positive cells” value in test [1] amounted to 72 ± 4%.
The IC50 is the concentration at which inhibition is half-maximal. For “trans-[1-(1R)-menthyl-4-(allyl)-1,2,4-triazol-5-ylidene]2PdBr2 [(1R,2R,5S)-2b]”, the IC50 in the test on MCF-7 cells [2] (read-out: IC50 (μM), MCF-7) was roughly 10 µM.
Same read-out and setting: to “trans-[1-(1S)-menthyl-4-(benzyl)-1,2,4-triazol-5-ylidene]2Pd(OCOCF3)2 [(1S,2S,5R)-3c]” belongs greater than 10 µM; to “trans-[1-(1R)-menthyl-4-(benzyl)-1,2,4-triazol-5-ylidene]2PdBr2 [(1R,2R,5S)-3b]”, greater than 10 µM; to “trans-[1-(1S)-menthyl-4-(benzyl)-1,2,4-triazol-5-ylidene]2PdBr2 [(1S,2S,5R)-3b]”, greater than 10 µM.
Still for that read-out and setting: with “trans-[1-(1S)-menthyl-4-(ethyl)-1,2,4-triazol-5-ylidene]2PdBr2 [(1S,2S,5R)-1b]” the figure was 2.2 ± 0.1 µM.
On to `CCCCN1C=CN(Cc2ccccc2)[CH]1[Pd]([Cl])([Cl])[CH]1N(CCCC)C=CN1Cc1ccccc1` (stereo not shown) [Compound 9], for which the IC50 with HCT 116 cell lines is 6.6 µM.
“trans-[1-(1R)-menthyl-4-(benzyl)-1,2,4-triazol-5-ylidene]2Pd(OCOCF3)2 [(1R,2R,5S)-3c]”: the IC50 with MCF-7 cells [2] (read-out: IC50 (μM), MCF-7) is greater than 10 µM.
Consider “trans-[1-(1S)-menthyl-4-(allyl)-1,2,4-triazol-5-ylidene]2PdBr2 [(1S,2S,5R)-2b]”, for which the IC50 with MCF-7 cells [2] (read-out: IC50 (μM), MCF-7) was roughly 10 µM.
Consider “trans-[1-(1R)-menthyl-4-(ethyl)-1,2,4-triazol-5-ylidene]2PdBr2 [(1R,2R,5S)-1b]”, for which the IC50 in the test with MCF-7 cells [2] (read-out: IC50 (μM), MCF-7) worked out at 2.3 ± 1 µM.
On to `N.N.[Cl][Pt][Cl]` [cisplatin, cis-diammine-dichloroplatinum (II), reference compound], for which the IC50 is 15 µM in the test on MCF-7 cells [3]; 8 µM in the test on HeLa cells [4]; 8.5 ± 0.7 µM with HeLa cells [5]; 14.9 ± 0.4 µM with MCF-7 cells [2] (read-out: IC50 (μM), MCF-7); 16 µM in the test with HCT 116 cells. Besides, in the test with MCF-7 cells [6], the Dead % is given as 8 ± 2%. In addition, the Live % with MCF-7 cells [6] is 93 ± 4%.
With “trans-[1-(1S)-menthyl-4-(ethyl)-1,2,4-triazol-5-ylidene]2Pd(OCOCF3)2 [(1S,2S,5R)-1c]”, the IC50 was 2.6 ± 1.6 µM in the test on HeLa cells [5] (listed as drawing 40); 2.6 ± 1.6 µM in the test with HeLa cells [5] (listed as drawing 47); 0.7 ± 0.005 µM with MCF-7 cells [2] (read-out: IC50 (μM), MCF-7); 0.7 ± 0.005 µM in the test with MCF-7 cells [2] (unit nM printed in cell or sentence, read-out: IC50, MCF-7 (values given in nM)).
Regarding `C=CCN1C=CN(CCCC)[CH]1[Pd]([Cl])([Cl])[CH]1N(CC=C)C=CN1CCCC` (stereo not shown) [Compound 8], in the test with HCT 116 cell lines, the IC50 was 26.5 µM.
